Assay results reported in publication PMC10999112 (Angewandte Chemie (International ed. in English), 2023).

Target: recombinant WT-NSUN2 (Homo sapiens, UniProt Q08J23)
Assay: Gel-ABPP in lysate of WT-NSUN2-expressing HEK293T cells
Assay type: binding
Settings: recombinant WT-NSUN2 in HEK293T cell lysates

recombinant WT-NSUN2, sequence (Q08J23 whole entry): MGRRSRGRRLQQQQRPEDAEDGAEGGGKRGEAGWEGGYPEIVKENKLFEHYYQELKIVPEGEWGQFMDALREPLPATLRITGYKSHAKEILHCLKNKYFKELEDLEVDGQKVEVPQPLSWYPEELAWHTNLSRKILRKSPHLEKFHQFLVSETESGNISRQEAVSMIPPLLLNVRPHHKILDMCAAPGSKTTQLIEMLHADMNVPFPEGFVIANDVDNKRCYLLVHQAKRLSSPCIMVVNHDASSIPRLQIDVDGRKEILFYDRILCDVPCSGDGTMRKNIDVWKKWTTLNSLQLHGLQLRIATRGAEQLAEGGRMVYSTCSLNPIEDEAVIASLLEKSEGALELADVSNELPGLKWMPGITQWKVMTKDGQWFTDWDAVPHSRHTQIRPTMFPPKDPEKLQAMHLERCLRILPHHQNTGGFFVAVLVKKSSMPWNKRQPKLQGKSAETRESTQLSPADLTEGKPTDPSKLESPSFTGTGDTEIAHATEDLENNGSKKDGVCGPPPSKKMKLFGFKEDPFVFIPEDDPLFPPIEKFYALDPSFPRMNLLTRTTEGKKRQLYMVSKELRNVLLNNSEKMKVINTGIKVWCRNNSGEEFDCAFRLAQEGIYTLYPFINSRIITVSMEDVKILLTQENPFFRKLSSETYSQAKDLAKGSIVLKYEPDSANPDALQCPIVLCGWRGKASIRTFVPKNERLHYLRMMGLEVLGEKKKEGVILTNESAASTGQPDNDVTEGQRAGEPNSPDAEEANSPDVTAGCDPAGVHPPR

For `Nc1ncnc2c1ncn2[C@@H]1O[C@H](CSCC[C@H](N)C(=O)O)[C@@H](O)[C@H]1O` [SAH, S-adenosylhomocysteine], the “blockade of MY-11B reactivity with NSUN2” value was “blocked in a concentration-dependent manner”.
